From PubChem BioAssay AID1963839 (Molecular Pharmacology Branch, DTP, NCI, 2024)

System: 817829-284-R-J1-PDC complex spheroid viability
Assay: Anticancer human tumor 817829-284-R-J1-PDC patient-derived colon adenocarcinoma cell line growth inhibition [POLQ]
Settings: for IC50: curve of first compound; for viability, T/C: stronger effect = lower value
Method: Multicellular complex tumor spheroid response to Polymerase (POL) inhibitors (novobiocin, ART-558, RP6685) in combination with a variety of drugs and investigational agents in selected tumor cell lines
The POL inhibitors (novobiocin, ART-558, and RP6685) were evaluated both individually and in combination with standard of care and investigational anticancer small molecules within a complex spheroid model of solid tumors. . Complex spheroids include a stromal component modeled by human endothelial cells (HUVEC) and fibroblasts modeled by human mesenchymal stem cells (MSCs). The concentration ranges selected for each drug and investigational agent were based upon clinically achievable concentrations if the clinical Cmax of the agent was known.
Compounds. The drugs and investigational agents: novobiocin (NSC847541), ART-558 (NSC835418), RP-6685 (NSC848927), peposertib (NSC802822), ceralasertib (NSC780249), elimusertib (NSC800525), camonsertib (NSC841442), AZD-1390 (NSC803789), olaparib (NSC753686), talazoparib (NSC767125), rucaparib (NSC756644), sotorasib (NSC818433), MRTX-1133 (NSC836407), SN-38 (NSC673596), topotecan (NSC609699), epotoside (NSC141540), doxorubicin (NSC123127), gemcitabine (NSC613327), 5-fluorouracil (NSC19893), paclitaxel (NSC125973), vemurafenib (NSC761431), MSA-2 (NSC828583), SN-011 (NSC837082), adavosertib (NSC754352), prexasertib (NSC758257), carboplatin (NSC241240) and oxaliplatin (NSC266046), were obtained from the National Cancer Institute (NCI) Developmental Therapeutics Program Chemical Repository (21). The FDA-approved anticancer drug set is available from the Developmental Therapeutics Program at https://dtp.cancer.gov/organization/dscb/obtaining/. […] The stock solutions were prepared in dimethyl sulfoxide (DMSO, Sigma-Aldrich, St. Louis, MO, cat. D2650), except for the platinum compounds which were prepared in saline (Quality Biological, Gaithersburg, MD, cat. 114-055-101), at 800-fold the tested concentration and stored at -70 degrees C prior to their use. All drugs and investigational agents were tested over a range starting from a high concentration at or near the clinical Cmax and decreasing in half-log increments. If the clinical Cmax for an agent had not been determined, the highest concentration tested was 10 microM, except for SN-38, which was tested at a high concentration of 1 microM.
Cell Culture. All cells were maintained in an incubator at 37 degrees C and 5% CO2 with 95% humidity. The PDC lines were cultured according to standard operating procedures established by the NCI PDMR (https://pdmr.cancer.gov). Table 3 of the manuscript, lists the cell lines along with the number of the three cell types plated to form the mct-spheroids and media for tumor cell growth. After thawing, all PDC lines, except 997537-175-T-J1-PDC and 415267-285-R-J2-PDC, were cultured in Matrigel-coated flasks prepared with a working solution of 1X Ham's F-12 nutrient mix, without supplementation (Thermo Fisher Scientific, cat. 11765054), 100 U/mL penicillin-streptomycin (Thermo Fisher Scientific, cat. 15140122), and 2.5% Matrigel (Corning Inc., Corning, NY, cat. 354248) for the first three passages. The two PDC lines 997537-175-T-J1-PDC and 415267-285-R-J2-PDC were cultured on uncoated flasks. The 857933-349-R-J2-PDC line was cultured in 6C/Colon 1B media containing advanced DMEM/F-12 (Thermo Fisher Scientific, cat. 12634028), 10 mM HEPES (Thermo Fisher Scientific, cat. 15630080), 1X GlutaMAX supplement (Thermo Fisher Scientific, cat. 35050061), 0.1 mg/mL primocin (InvivoGen, San Diego, CA, cat. ant-pm-2), 10% defined fetal bovine serum, heat inactivated (HyClone Laboratories Inc., Logan, UT, cat. SH30070.03HI), 50% L-WRN conditioned media (ATCC, cat. CRL-3276), 1.25 mM N-Acetyl-L-cysteine (Sigma-Aldrich, cat. A9165), 10 mM nicotinamide (Sigma-Aldrich, cat. N0636), 1X B-27 supplement (Thermo Fisher Scientific, cat. 17504044), 1X N-2 supplement (Thermo Fisher Scientific, cat. […]

[1] = second compound 0.0316 µM, first compound 0.0316 µM
[2] = second compound 0.0316 µM, first compound 0.1 µM
[3] = second compound 0.0316 µM, first compound 0.316 µM
[4] = second compound 0.0316 µM, first compound 1 µM
[5] = second compound 0.1 µM, first compound 0.0316 µM
[6] = second compound 0.1 µM, first compound 0.1 µM
[7] = second compound 0.1 µM, first compound 0.316 µM
[8] = second compound 0.1 µM, first compound 1 µM
[9] = second compound 0.316 µM, first compound 0.0316 µM
[10] = second compound 0.316 µM, first compound 0.1 µM
[11] = second compound 0.316 µM, first compound 0.316 µM
[12] = second compound 0.316 µM, first compound 1 µM
[13] = second compound 1 µM, first compound 0.0316 µM
[14] = second compound 1 µM, first compound 0.1 µM
[15] = second compound 1 µM, first compound 0.316 µM
[16] = second compound 1 µM, first compound 1 µM
[17] = second compound 3.16 µM, first compound 0.0316 µM
[18] = second compound 3.16 µM, first compound 0.1 µM
[19] = second compound 3.16 µM, first compound 0.316 µM
[20] = second compound 3.16 µM, first compound 1 µM
[21] = second compound 10 µM, first compound 0.0316 µM
[22] = second compound 10 µM, first compound 0.1 µM
[23] = second compound 10 µM, first compound 0.316 µM
[24] = second compound 10 µM, first compound 1 µM
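Note: spheroids exposed to compounds for 7 days.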
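Throughout, for viability, T/C: 100% = DMSO vehicle-treated spheroids.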

## CCCS(=O)(=O)Nc1ccc(F)c(C(=O)c2c[nH]c3ncc(-c4ccc(Cl)cc4)cc23)c1F + Cc1cccc(N(C)C(=O)C2C(O)CCN2c2nc(C)cc(C(F)(F)F)c2C#N)c1
Second compound 0.0316 µM
  IC50: 2980 nM
Second compound 0.1 µM
  IC50: 4450 nM
Second compound 0.316 µM
  IC50: 4070 nM
Second compound 1 µM
  IC50: 3710 nM
Second compound 3.16 µM
  IC50: 3810 nM
Second compound 10 µM
  IC50: 2390 nM
[1]
  viability, T/C: 82.6%
[2]
  viability, T/C: 75.3%
[3]
  viability, T/C: 81.4%
[4]
  viability, T/C: 84.3%
Second compound 0.0316 µM, first compound 3.16 µM
  viability, T/C: 48.3%
Second compound 0.0316 µM, first compound 10 µM
  viability, T/C: 6.4%
[5]
  viability, T/C: 86.5%
[6]
  viability, T/C: 83.7%
[7]
  viability, T/C: 81.9%
[8]
  viability, T/C: 80.8%
Second compound 0.1 µM, first compound 3.16 µM
  viability, T/C: 68.1%
Second compound 0.1 µM, first compound 10 µM
  viability, T/C: 8.39%
[9]
  viability, T/C: 94.9%
[10]
  viability, T/C: 89.6%
[11]
  viability, T/C: 76.4%
[12]
  viability, T/C: 81.8%
Second compound 0.316 µM, first compound 3.16 µM
  viability, T/C: 63.8%
Second compound 0.316 µM, first compound 10 µM
  viability, T/C: 6.86%
[13]
  viability, T/C: 103%
[14]
  viability, T/C: 91.9%
[15]
  viability, T/C: 90.8%
[16]
  viability, T/C: 80.5%
Second compound 1 µM, first compound 3.16 µM
  viability, T/C: 58.2%
Second compound 1 µM, first compound 10 µM
  viability, T/C: 6.61%
[17]
  viability, T/C: 104%
[18]
  viability, T/C: 97%
[19]
  viability, T/C: 83.3%
[20]
  viability, T/C: 74.3%
Second compound 3.16 µM, first compound 3.16 µM
  viability, T/C: 66.5%
Second compound 3.16 µM, first compound 10 µM
  viability, T/C: 8.21%
[21]
  viability, T/C: 85.7%
[22]
  viability, T/C: 76.5%
[23]
  viability, T/C: 66.5%
[24]
  viability, T/C: 64.2%
Second compound 10 µM, first compound 3.16 µM
  viability, T/C: 49.5%
Second compound 10 µM, first compound 10 µM
  viability, T/C: 4.19%

## COc1cccc(OCCCN)c1-c1cc(Nc2cnc(C#N)cn2)n[nH]1 + Cc1cccc(N(C)C(=O)C2C(O)CCN2c2nc(C)cc(C(F)(F)F)c2C#N)c1
Second compound 0.0316 µM
  IC50: 4.8 nM
Second compound 0.1 µM
  IC50: 5.63 nM
Second compound 0.316 µM
  IC50: 5.68 nM
Second compound 1 µM
  IC50: 5.28 nM
Second compound 3.16 µM
  IC50: 4.83 nM
Second compound 10 µM
  IC50: 5.22 nM
Second compound 0.0316 µM, first compound 0.00316 µM
  viability, T/C: 70.3%
Second compound 0.0316 µM, first compound 0.01 µM
  viability, T/C: 14.5%
[1]
  viability, T/C: 5.94%
[2]
  viability, T/C: 4.36%
[3]
  viability, T/C: 4.2%
[4]
  viability, T/C: 2.81%
Second compound 0.1 µM, first compound 0.00316 µM
  viability, T/C: 86.8%
Second compound 0.1 µM, first compound 0.01 µM
  viability, T/C: 13.4%
[5]
  viability, T/C: 5.69%
[6]
  viability, T/C: 4.81%
[7]
  viability, T/C: 4.14%
[8]
  viability, T/C: 2.6%
Second compound 0.316 µM, first compound 0.00316 µM
  viability, T/C: 84.9%
Second compound 0.316 µM, first compound 0.01 µM
  viability, T/C: 16.4%
[9]
  viability, T/C: 4.73%
[10]
  viability, T/C: 4.19%
[11]
  viability, T/C: 4.39%
[12]
  viability, T/C: 3.1%
Second compound 1 µM, first compound 0.00316 µM
  viability, T/C: 78%
Second compound 1 µM, first compound 0.01 µM
  viability, T/C: 15.3%
[13]
  viability, T/C: 5.38%
[14]
  viability, T/C: 4.93%
[15]
  viability, T/C: 3.71%
[16]
  viability, T/C: 3.25%
Second compound 3.16 µM, first compound 0.00316 µM
  viability, T/C: 69.9%
Second compound 3.16 µM, first compound 0.01 µM
  viability, T/C: 16%
[17]
  viability, T/C: 5.86%
[18]
  viability, T/C: 5.17%
[19]
  viability, T/C: 4.05%
[20]
  viability, T/C: 2.85%
Second compound 10 µM, first compound 0.00316 µM
  viability, T/C: 76.6%
Second compound 10 µM, first compound 0.01 µM
  viability, T/C: 15.7%
[21]
  viability, T/C: 5.87%
[22]
  viability, T/C: 4.92%
[23]
  viability, T/C: 4.34%
[24]
  viability, T/C: 3.21%
